From publication PMC6154598, “Alkamides from Anacyclus pyrethrum L. and Their in Vitro Antiprotozoal Activity” (Molecules : A Journal of Synthetic Chemistry and Natural …, 2017)
Values after ≈ are worked out from the molar mass of the structure shown. Where two headings read alike, the source gives them in different places.

Tests used:
[1] = tested on: T. b. rhodesiense (STIB 900 strain, bloodstream trypomastigotes); assay: In vitro antiprotozoal activity against T. b. rhodesiense; type: cell-based, Trypanosoma brucei rhodesiense; conditions: for SI Tbr: ratio of cytotoxic (L6) over antiprotozoal IC50 (Tbr)
Description: (§1) Tests for antiprotozoal activities were carried out using established standard protocols at the Swiss Tropical and Public Health Institute (Swiss TPH, Basel, Switzerland). The assays and the IC50 determinations were performed essentially as described previously. The compounds used as positive controls in the various bioassays (see Table 1) were of commercial origin, with the exception of melarsoprol, which was a gift from the WHO. Their purity (generally >95%) was specified by the manufacturers. The purity of test compounds was assessed by UHPLC/MS analyses and found to be >90% in case of compounds 1–6 and >80% in case of 7. Compounds 8 + 9 represented a mixture in a ratio of approximately 1:4 (Figure S10).

[2] = tested on: T. cruzi (Tulahuen C4 strain; intracellular amastigotes); assay: In vitro antiprotozoal activity against T. cruzi; type: cell-based, Trypanosoma cruzi
Description: as §1

[3] = tested on: L. donovani (MHOM-ET-67/L82 strain, axenic amastigotes); assay: In vitro antiprotozoal activity against L. donovani; type: cell-based, Leishmania donovani; conditions: for SI Ld: ratio of cytotoxic (L6) over antiprotozoal IC50 (Ld)
Description: as §1

P. falciparum (NF54 IEF) [4] = assay: In vitro antiprotozoal activity against P. falciparum; type: cell-based, Plasmodium falciparum; conditions: for SI Pf: ratio of cytotoxic (L6) over antiprotozoal IC50 (Pf)
Description: as §1

[5] = tested on: L6 rat skeletal myoblast cell line; assay: Cytotoxicity against L6 rat skeletal myoblasts; type: cell-based
Description: as §1

[6] = Cytotoxicity against L6 rat skeletal myoblasts; type: cell-based
Description: as §1

P. falciparum (NF54 IEF) [7] = tested on: P. falciparum (NF54 IEF); design: method as in PMID 24853616; conditions: previously reported data; cited from earlier work
[8] = NF54 IEF, mean of two determinations ± deviation
[9] = Plasmodium falciparum, NF54, read-out: IC50 Pf
[10] = Plasmodium falciparum, NF54, read-out: IC50 Pf (in brackets)
[11] = Trypanosoma brucei, STIB 900 strain, bloodstream trypomastigotes, mean of two determinations ± deviation, read-out: IC50 Tbr
[12] = Trypanosoma brucei, STIB 900 strain, bloodstream trypomastigotes, value in μM of pure compound, read-out: IC50 Tbr (in brackets)
[13] = Trypanosoma cruzi, Tulahuen C4 strain, intracellular amastigotes, value in μM of pure compound, read-out: IC50 Tc (in brackets)
[14] = L6 rat skeletal myoblast cell line, mean of two determinations ± deviation, read-out: IC50 Cytotox
[15] = L6 rat skeletal myoblast cell line, value in μM of pure compound, read-out: IC50 Cytotox (in brackets)
[16] = Trypanosoma cruzi, Tulahuen C4 strain, intracellular amastigotes, mean of two determinations ± deviation, read-out: IC50 Tc
[17] = Leishmania donovani, MHOM-ET-67/L82 strain, axenic amastigotes, mean of two determinations ± deviation, read-out: IC50 Ld
[18] = Leishmania donovani, MHOM-ET-67/L82 strain, axenic amastigotes, value in μM of pure compound, read-out: IC50 Ld (in brackets)
[19] = Plasmodium falciparum, NF54, NF54 IEF, mean of two determinations ± deviation, read-out: IC50 Pf
[20] = Plasmodium falciparum, NF54, NF54 IEF, value in μM of pure compound, read-out: IC50 Pf (in brackets)
[21] = rat, IC50 Cytotox (in brackets)

| Molecule | SI Tbr [1] | SI Ld [3] | SI Pf (P. falciparum (NF54 IEF) [4]) | IC50 [1, 11] [µg/mL] | IC50 [1, 12] [µM] | IC50 [2, 13] [µM] | IC50 [2, 16] [µg/mL] | IC50 [3, 17] [µg/mL] | IC50 [3, 18] [µM] | IC50 (P. falciparum (NF54 IEF) [4]; [19]) [µg/mL] | IC50 (P. falciparum (NF54 IEF) [4]; [20]) [µM] | IC50 ([6]; rat, IC50 Cytotox) [µg/mL] | IC50 [6, 21] [µM] | other results |
| --- | --- | --- | --- | --- | --- | --- | --- | --- | --- | --- | --- | --- | --- | --- |
| undeca-2E,4E-dien-8,10-diynoic acid isopentylamide [Compound 5] | 6.2 | 7.0 | 2.7 | – | – | – | – | – | – | – | – | – | – | IC50 Tbr ([1]; STIB 900 strain, bloodstream trypomastigotes, mean of two determinations ± deviation): 4.59 ± 0.39 µg/mL; IC50 ([1]; STIB 900 strain, bloodstream trypomastigotes, value in μM of pure compound, read-out: IC50 Tbr (in brackets)): 18.9 µM; IC50 Tc ([2]; Tulahuen C4 strain, intracellular amastigotes, mean of two determinations ± deviation): 16.3 ± 0.3 µg/mL; IC50 ([2]; Tulahuen C4 strain, intracellular amastigotes, value in μM of pure compound, read-out: IC50 Tc (in brackets)): 66.9 µM; IC50 Ld ([3]; MHOM-ET-67/L82 strain, axenic amastigotes, mean of two determinations ± deviation): 4.04 ± 0.71 µg/mL; IC50 ([3]; MHOM-ET-67/L82 strain, axenic amastigotes, value in μM of pure compound, read-out: IC50 Ld (in brackets)): 16.6 µM; IC50 Pf (P. falciparum (NF54 IEF) [4]; [8]): 10.3 ± 1.4 µg/mL; IC50 (P. falciparum (NF54 IEF) [4]; NF54 IEF, value in μM of pure compound, read-out: IC50 Pf (in brackets)): 42.5 µM; IC50 [5]: 116 µM; IC50 Cytotox [5]: 28.2 ± 6.9 µg/mL |
| CCN(CC)CCCC(C)Nc1ccnc2cc(Cl)ccc12 (stereo not drawn) [chloroquine, reference compound] | – | – | – | – | – | – | – | – | – | – | – | – | – | IC50 (P. falciparum (NF54 IEF) [4]; [9]): 0.08 ± 0.003 µg/mL; IC50 (P. falciparum (NF54 IEF) [4]; [10]): 0.25 µM |
| Nc1nc(N)nc(Nc2ccc([As]3SCC(CO)S3)cc2)n1 (stereo not drawn) [melarsoprol, reference compound] | – | – | – | – | – | – | – | – | – | – | – | – | – | IC50 ([1]; Trypanosoma brucei, read-out: IC50 Tbr): 0.003 ± 0.001 µg/mL; IC50 ([1]; Trypanosoma brucei, read-out: IC50 Tbr (in brackets)): 0.008 µM |
| CCCCC/C=C/C=C/C(=O)NCCc1ccccc1 [Compound 4, deca-2E,4E-dienoic acid 2-phenylethylamide] | 2.0 | 2.7 | – | 4.03 | 14.9 | 18.5 | – | – | – | – | – | – | – | IC50 ([2]; Trypanosoma cruzi, TULAHUEN, read-out: IC50 Tc): 5.02 ± 0.05 µg/mL; IC50 ([3]; Leishmania donovani, read-out: IC50 Ld): 2.97 ± 0.54 µg/mL; IC50 ([3]; Leishmania donovani, read-out: IC50 Ld (in brackets)): 11 µM; IC50 (P. falciparum (NF54 IEF) [4]; [9]): > 5 µg/mL; IC50 (P. falciparum (NF54 IEF) [4]; [10]): > 18 µM; IC50 [6, 14]: 7.88 µg/mL; IC50 [6, 15]: 29.1 µM |
| CCCCC/C=C/C=C/C(=O)NCC(C)C [Compound 2, deca-2E,4E-dienoic acid isobutylamide] | – | – | – | – | – | – | – | – | – | – | – | – | – | IC50 Pf (P. falciparum (NF54 IEF) [7]): 3.3 µg/mL (≈ 14.8 µM) |
| C/C=C\C#CC#CCC/C=C/C=C/C(=O)NCC(C)C [Compound 6, tetradeca-2E,4E,12Z-trien-8,10-diynoic acid isobutylamide] | 3.1 | 3.9 | 2.7 | 6.37 ± 0.94 | 23.7 | 144 | 38.8 ± 2.1 | 5.04 ± 1.17 | 18.7 | 7.19 ± 0.49 | 26.7 | 19.4 ± 1.7 | 72.2 | – |
| CCCCCCCCCCCCCCCCOP(=O)([O-])OCC[N+](C)(C)C [miltefosine, reference compound] | – | – | – | – | – | – | – | 0.127 ± 0.052 | 0.312 | – | – | – | – | – |
| COc1cc([C@@H]2c3cc4c(cc3[C@H](O)[C@H]3COC(=O)[C@H]23)OCO4)cc(OC)c1OC [podophyllotoxin, reference compound] | – | – | – | – | – | – | – | – | – | – | – | – | – | IC50 [6, 14]: 0.008 ± 0.001 µg/mL; IC50 [6, 15]: 0.019 µM |
| CCCCCCC/C=C/C=C/C(=O)NCCc1ccc(O)cc1 [Compound 7, Dodeca-2E,4E-dienoic acid 4-hydroxy-2-phenylethylamide] | 0.1 | <0.1 | <0.1 | 2.26 ± 0.18 | 7.17 | – | 1.88 | 4.19 ± 1.64 | 13.3 | 3.2 | 10.1 | 0.2 | 0.69 | IC50 ([2]; Trypanosoma cruzi, TULAHUEN, read-out: IC50 Tc (in brackets)): 5.97 µM; IC50 Pf (P. falciparum (NF54 IEF) [4]; [8]): 3.18 ± 0.20 µg/mL (≈ 10.1 µM); IC50 Cytotox ([5]; rat): 0.19 ± 0.05 µg/mL (≈ 0.602 µM) |
| C=CCCC/C=C/C=C/C(=O)NCC(C)C [Compound 3, deca-2E,4E,9-trienoic acid isobutylamide] | 5.7 | 3.5 | 2.3 | 2.91 ± 0.21 | 13.2 | 181 | 39.9 | 4.77 ± 1.02 | 21.6 | 7.13 ± 0.63 | 32.2 | 16.7 ± 0.1 | 75.3 | – |
